Laboratory results published in publication PMC7466159, “Anti-Metastasis Fascin Inhibitors Decrease the Growth of Specific Subtypes of Cancers” (Cancers, 2020).

Columns and labels:
[1] = system: MDA-MB-231 human triple-negative breast cancer cells; experiment: Overall survival of MDA-MB-231 tumor-bearing mice; assay type: in vivo
Experimental: The numbers of metastatic MDA-MB-231 cells in lungs were determined by a clonogenic assay. The lungs were removed from each mouse once sacrificed, and the resulting cells were suspended and plated with a series of dilutions in 10-cm tissue culture dishes in medium containing 2.0 µg/mL puromycin for clonogenic growth. As these MBA-MB-231 tumor cells were stably transfected with the vector pSuper-puro, the metastasized tumor cells formed foci after 14 days, at which time they were fixed with 4% paraformaldehyde and stained with crystal violet staining solution for counting. For combination treatments with chemotherapy, MDA-MB-231 tumor cells (1 × 10^5) suspended in PBS-matrigel (v/v, 1:1) were injected subcutaneously into the abdominal mammary gland area of mice on Day 0. Starting on Day 0, 7, or 14, NP-G2-044 was given to mice once a day for 6 days every week by oral gavage at 300 mg/kg per mouse. A vehicle solvent was given to the control mice once a day for 6 days every week. Starting on day 14, doxorubicin hydrochloride (MilliporeSigma, St. Louis, MO, USA) (2 mg/kg) and cyclophosphamide monohydrate (MilliporeSigma) (60 mg/kg) were given to mice once a week for four weeks. Primary tumors were removed on day 28. The death of the mice was used as the endpoint.

U2932 cells = experiment: Soft-agar colony formation assay, U2932; assay type: cell-based; details: 14 days, dosage-dependent
Experimental: A total of 1 × or 2 ×10^4 cells were suspended in 0.5 mL of 0.3% low melting point agar (Merck KGaA, Darmstadt, Germany) in RPMI-1640 or DMEM containing 10% FBS and control solvent or the inhibitors. This suspension was overlaid on pre-solidified with 0.6% agar in the same medium in 24-well plates as previously described. Normal growth medium containing control solvent or the inhibitors was gently layered over the cultures every 4 days for 14 days. The colonies were stained with 0.1% crystal violet for 1 h at room temperature and counted under a microscope.

`Cc1occc1C(=O)Nc1nn(Cc2ccc(C(F)(F)F)cc2)c2ccccc12` [NP-G2-044] was tested, and the “increase of median overall survival” value ([1]; NSG mice, compared with the control group, primary tumors removed on day 28) was ~ 29%, the “overall survival by start of treatment” value ([1]; combination with chemotherapy, NP-G2-044 starting on Day 0 and Day 7 versus Day 14) was “longer overall survival” and the “number of growing colonies” value (U2932 cells) was “decreased the number of growing colonies”.
